{"source": "patent US11236110B2", "about": "(priority 2017, dated 2022)", "key": {"[1]": {"assay": "Preliminary miscibility assays on the free base in selected solvents", "assay_type": "physicochemical", "conditions": "for Miscibility: number of volumes needed to dissolve the oil at room temperature", "from_the_text": "Preliminary Miscibility Assays on (R)-9-(2,5-difluorophenethyl)-4-ethyl-2-methyl-1-oxa-4,9-diazaspiro[5.5]undecan-3-One Free Base"}, "[2]": {"conditions": "acidic counter-ion; cited from earlier work"}}}
{"molecule": "CCN1CC2(CCN(CCc3cc(F)ccc3F)CC2)O[C@H](C)C1=O", "note": "[(R)-9-(2,5-difluorophenethyl)-4-ethyl-2-methyl-1-oxa-4,9-diazaspiro[5.5]undecan-3-one]", "values": [{"measurement": "miscibility of the oil with the solvents tested", "setting": "[1]; room temperature, all the solvents tested (Table 2)", "value": "freely miscible"}, {"measurement": "Miscibility", "setting": "[1]; solvent H2O", "value": 10, "unit": "V"}, {"measurement": "Miscibility", "setting": "[1]; solvent IPA (isopropanol)", "value": 10, "unit": "V"}, {"measurement": "Miscibility", "setting": "[1]; solvent MIK (methyl isobutyl ketone)", "value": 10, "unit": "V"}, {"measurement": "Miscibility", "setting": "[1]; solvent THF (tetrahydrofuran)", "value": 10, "unit": "V"}, {"measurement": "Miscibility", "setting": "[1]; solvent Toluene", "value": 10, "unit": "V"}]}
{"molecule": "O=C(O)[C@@H](O)c1ccccc1", "note": "[(S)-(+)-Mandelic acid]", "values": [{"measurement": "pKa1", "setting": "[2]", "value": 3.4}]}
{"molecule": "Br", "note": "[Hydrobromic acid]", "values": [{"measurement": "pKa1", "setting": "[2]", "value": "−6"}]}
{"molecule": "O=[N+]([O-])O", "note": "[Nitric acid]", "values": [{"measurement": "pKa1", "setting": "[2]", "value": "−1.4"}]}
